Data taken from ChEMBL document CHEMBL1201862, “PubChem BioAssay data set” (2004).
“And” between values parts separate entries of the source, which are not always exact repeats. Equal entries are not always repeated. The source made the active and inactive calls.

Key:
[1] = molecular target: Mitogen-activated protein kinase 10 (Homo sapiens, UniProt P53779); test: Dose response biochemical screening assay for inhibitors of c-Jun N-Terminal Kinase 3 (JNK3). [Related pubchem assays: 746 ]
[2] = antimalarial activity against Dd2 parasites – SYBR Green fluorescence, erythrocytes, dry powder, set 2, dose response (AID 1159574); type: functional, cell-based
[3] = viability loss in THP-1 monocytes – THP-1 cells, cytotoxicity control for Vif-APOBEC3G degradation inhibitor project, dose response (AID 1117359); type: functional; conditions: THP-1
[4] = molecular target: Glutathione-S-transferase (Schistosoma japonicum, UniProt Q26513); test: GST-antibody interaction or FRET quenching – biochemical, TR-FRET, artefact control for Vif-APOBEC3G degradation inhibitor project, dose response (AID 1117362); type: functional
[5] = molecular target: Tyrosine-protein phosphatase non-receptor type 5 (Homo sapiens, UniProt P54829); test: PTPN5 enzyme inhibition – biochemical, fluorescence intensity, uHTS hits, confirmation (AID 602372); type: functional; conditions: read-out: IC50_Mean
[6] = molecular target: T1, Carboxy-terminal domain RNA polymerase II polypeptide A small phosphatase 1 (Homo sapiens, UniProt Q9GZU7); test: CTDSP1 inhibitors, concentration-response, biochemical, absorbance readout, ultra-high-throughput screen actives (AID 540297); type: functional
T1 sequence (Q9GZU7 whole entry): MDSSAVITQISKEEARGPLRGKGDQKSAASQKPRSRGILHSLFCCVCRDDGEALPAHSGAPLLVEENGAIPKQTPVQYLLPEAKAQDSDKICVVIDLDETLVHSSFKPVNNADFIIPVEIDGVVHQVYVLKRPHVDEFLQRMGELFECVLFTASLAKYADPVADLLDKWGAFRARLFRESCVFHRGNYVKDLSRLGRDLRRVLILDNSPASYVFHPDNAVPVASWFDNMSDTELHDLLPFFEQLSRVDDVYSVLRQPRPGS

[7] = molecular target: Tyrosine-protein phosphatase non-receptor type 11 (Homo sapiens, UniProt Q06124); test: PTPN11 enzyme inhibitors – biochemical, selectivity assay for STEP inhibitor project, dose response (AID 602367); type: functional; conditions: read-out: IC50_Mean
[8] = molecular target: Dual specificity protein phosphatase 3 (Homo sapiens, UniProt P51452); test: VHR phosphatase inhibition, dose response, selectivity assay for STEP inhibitor project, biochemical (AID 602374); type: functional; conditions: read-out: IC50_Mean
[9] = molecular target: Protein Tat (Human immunodeficiency virus type 1 group M subtype B (isolate HXB2)(HIV-1), UniProt P04608); type: functional;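 also: tat binding to TAR RNA read out by fluorescence polarization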
[10] = molecular target: T2, Tyrosine-protein phosphatase non-receptor type 22 (Homo sapiens, UniProt Q9Y2R2); test: lymphoid phosphatase LYP inhibitors – biochemical, selectivity assay for STEP inhibitor project, dose response (AID 624241); type: functional
T2 sequence (Q9Y2R2 whole entry): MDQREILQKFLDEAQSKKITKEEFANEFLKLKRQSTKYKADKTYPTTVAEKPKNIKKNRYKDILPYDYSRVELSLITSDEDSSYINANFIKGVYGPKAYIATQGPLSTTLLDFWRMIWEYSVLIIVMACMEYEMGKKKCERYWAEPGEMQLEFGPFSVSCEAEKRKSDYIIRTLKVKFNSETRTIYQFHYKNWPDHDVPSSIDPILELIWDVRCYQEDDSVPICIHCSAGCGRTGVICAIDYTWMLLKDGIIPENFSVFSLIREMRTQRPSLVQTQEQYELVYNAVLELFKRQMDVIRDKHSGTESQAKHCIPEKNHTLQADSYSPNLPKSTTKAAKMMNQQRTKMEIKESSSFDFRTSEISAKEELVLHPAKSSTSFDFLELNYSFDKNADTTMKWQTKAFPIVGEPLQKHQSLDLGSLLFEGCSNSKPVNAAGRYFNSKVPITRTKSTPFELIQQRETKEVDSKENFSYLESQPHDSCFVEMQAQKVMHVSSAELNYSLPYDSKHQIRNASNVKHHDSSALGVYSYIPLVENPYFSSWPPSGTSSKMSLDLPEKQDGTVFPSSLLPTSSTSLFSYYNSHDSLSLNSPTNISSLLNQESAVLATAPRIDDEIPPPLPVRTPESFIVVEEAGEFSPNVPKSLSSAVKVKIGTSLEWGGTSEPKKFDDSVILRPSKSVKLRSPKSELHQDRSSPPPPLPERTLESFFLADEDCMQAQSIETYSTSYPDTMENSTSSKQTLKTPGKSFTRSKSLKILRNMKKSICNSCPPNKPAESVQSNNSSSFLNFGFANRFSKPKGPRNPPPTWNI

[11] = molecular target: Bifunctional protein GlmU (Mycobacterium tuberculosis, UniProt P9WMN3); test: Inhibitors of Mycobacterial Glucosamine-1-phosphate acetyl transferase (GlmU). Secondary screen.; parameters: species or system Mycobacterium tuberculosis H37Rv
[12] = inhibitors of non-replicating M. tuberculosis, dose response, luciferase, dry powder (AID 651620); type: functional; conditions: Mycobacterium tuberculosis
[13] = inhibitors of non-replicating M. tuberculosis, dose response, luciferase, dry powder (AID 651619); type: functional; conditions: Mycobacterium tuberculosis
[14] = molecular target: E3 ubiquitin-protein ligase Mdm2 (Homo sapiens, UniProt Q00987); test: MDM2-luc reporter signal enhancers, multi-concentration potency testing, MDM2 ubiquitin-protein ligase inhibitor program, whole-cell format, luminescence detection, 384-well microplate (AID 1394); type: functional;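 also: MDM2 E3 inhibitors raise luminescence so EC50 is for signal enhancement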
[15] = cytotoxicity toward HT-29 cells – cell-based, CellTiter-Glo luminescence, IC50, dose response (AID 1117330); type: functional
[16] = RKO cell viability reduction, dose response, CellTiter-Glo luminescence (AID 1117322); type: functional
[17] = cytotoxicity toward HCT116 cells – cell-based, CellTiter-Glo luminescence, IC50, dose response (AID 1117332); type: functional; conditions: HCT-116
[18] = Reduced DLD-1 viability, concentration-response, CellTiter-Glo luminescence (AID 1117352); type: functional
[19] = SNU-C1 cell viability reduction, dose response, CellTiter-Glo luminescence (AID 1117323); type: functional, cell-based
[20] = HCT116 cell viability decrease, GSK3B pretreatment – CellTiter-Glo, IC50, dose response (AID 1117339); type: functional; conditions: HCT-116
[21] = cytotoxicity toward Colo320 cells – cell-based, CellTiter-Glo luminescence, IC50, dose response (AID 1117334); type: functional; conditions: COLO 320
[22] = CellTiter-Glo luminescence survival assay, SW480 colon tumor line, concentration-response curve, half-maximal inhibitory concentration (AID 1117338); type: functional
[23] = molecular target: C-C chemokine receptor type 6 (Homo sapiens, UniProt P51684); test: SAR analysis of small molecule antagonists of the CXCR6 receptor using a CCR6 receptor luminescent beta-arrestin counterscreen.; type: functional
[24] = molecular target: C-X-C chemokine receptor type 4 (Homo sapiens, UniProt P61073); test: SAR analysis of small molecule antagonists of the CXCR6 receptor using a CXCR4 receptor luminescent beta-arrestin counterscreen.; type: functional
Chain of C-X-C chemokine receptor type 4 (P61073 whole entry): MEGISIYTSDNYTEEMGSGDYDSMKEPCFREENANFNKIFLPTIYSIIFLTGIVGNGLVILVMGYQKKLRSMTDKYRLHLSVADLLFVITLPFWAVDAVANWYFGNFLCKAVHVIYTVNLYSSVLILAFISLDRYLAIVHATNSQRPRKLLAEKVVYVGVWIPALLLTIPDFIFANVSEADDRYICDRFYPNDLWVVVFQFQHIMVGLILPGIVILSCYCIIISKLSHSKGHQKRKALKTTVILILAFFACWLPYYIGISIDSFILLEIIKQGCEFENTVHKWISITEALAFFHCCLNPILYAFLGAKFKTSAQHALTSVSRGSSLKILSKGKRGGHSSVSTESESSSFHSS

Chain of Tyrosine-protein phosphatase non-receptor type 5 (P54829 whole entry, the tested form may be a part): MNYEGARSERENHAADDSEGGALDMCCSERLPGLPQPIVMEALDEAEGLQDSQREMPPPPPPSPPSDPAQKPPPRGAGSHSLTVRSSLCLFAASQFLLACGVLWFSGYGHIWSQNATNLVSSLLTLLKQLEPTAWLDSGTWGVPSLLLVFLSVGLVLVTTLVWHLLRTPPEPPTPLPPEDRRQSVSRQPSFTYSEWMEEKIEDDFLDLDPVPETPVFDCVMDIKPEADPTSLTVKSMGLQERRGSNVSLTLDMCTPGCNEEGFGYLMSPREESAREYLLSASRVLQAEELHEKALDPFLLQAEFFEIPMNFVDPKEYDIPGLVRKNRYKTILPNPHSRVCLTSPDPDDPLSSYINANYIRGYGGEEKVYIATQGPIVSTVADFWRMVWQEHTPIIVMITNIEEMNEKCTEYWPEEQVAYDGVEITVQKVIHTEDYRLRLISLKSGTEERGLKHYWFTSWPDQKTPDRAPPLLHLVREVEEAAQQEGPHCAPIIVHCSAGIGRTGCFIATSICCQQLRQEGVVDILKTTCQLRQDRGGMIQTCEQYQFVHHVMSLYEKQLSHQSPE
Chain of Mitogen-activated protein kinase 10 (P53779 whole entry): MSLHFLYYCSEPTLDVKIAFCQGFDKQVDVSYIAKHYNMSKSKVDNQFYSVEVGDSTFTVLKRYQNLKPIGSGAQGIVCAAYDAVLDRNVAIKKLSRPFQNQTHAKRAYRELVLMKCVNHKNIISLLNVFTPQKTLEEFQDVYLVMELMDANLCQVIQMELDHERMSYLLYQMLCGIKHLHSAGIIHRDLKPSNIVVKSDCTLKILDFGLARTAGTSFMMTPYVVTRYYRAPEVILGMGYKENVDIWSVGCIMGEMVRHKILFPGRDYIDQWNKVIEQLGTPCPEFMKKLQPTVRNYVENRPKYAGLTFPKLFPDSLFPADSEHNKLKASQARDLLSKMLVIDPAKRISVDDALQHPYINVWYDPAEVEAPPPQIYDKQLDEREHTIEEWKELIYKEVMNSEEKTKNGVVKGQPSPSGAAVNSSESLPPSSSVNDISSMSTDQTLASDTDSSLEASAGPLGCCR
Chain of Dual specificity protein phosphatase 3 (P51452 whole entry): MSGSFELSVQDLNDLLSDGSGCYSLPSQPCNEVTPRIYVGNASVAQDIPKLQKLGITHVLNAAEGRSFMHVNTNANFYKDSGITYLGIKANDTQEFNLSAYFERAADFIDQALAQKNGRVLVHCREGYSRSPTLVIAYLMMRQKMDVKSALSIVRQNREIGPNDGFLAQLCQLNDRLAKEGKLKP
Chain of Bifunctional protein GlmU (P9WMN3 whole entry): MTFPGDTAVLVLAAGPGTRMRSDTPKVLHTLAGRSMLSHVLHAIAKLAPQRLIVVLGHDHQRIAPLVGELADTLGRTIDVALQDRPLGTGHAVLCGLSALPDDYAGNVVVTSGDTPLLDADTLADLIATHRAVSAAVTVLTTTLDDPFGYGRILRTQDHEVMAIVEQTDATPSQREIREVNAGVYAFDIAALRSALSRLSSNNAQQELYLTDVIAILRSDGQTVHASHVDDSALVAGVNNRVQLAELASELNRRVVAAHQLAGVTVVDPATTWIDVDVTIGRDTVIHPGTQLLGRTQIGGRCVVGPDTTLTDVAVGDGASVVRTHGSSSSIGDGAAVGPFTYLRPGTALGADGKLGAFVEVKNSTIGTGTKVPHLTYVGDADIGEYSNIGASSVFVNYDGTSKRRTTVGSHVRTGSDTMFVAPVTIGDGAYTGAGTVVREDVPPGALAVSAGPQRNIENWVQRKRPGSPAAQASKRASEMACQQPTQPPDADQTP
Chain of Glutathione-S-transferase (Q26513 whole entry): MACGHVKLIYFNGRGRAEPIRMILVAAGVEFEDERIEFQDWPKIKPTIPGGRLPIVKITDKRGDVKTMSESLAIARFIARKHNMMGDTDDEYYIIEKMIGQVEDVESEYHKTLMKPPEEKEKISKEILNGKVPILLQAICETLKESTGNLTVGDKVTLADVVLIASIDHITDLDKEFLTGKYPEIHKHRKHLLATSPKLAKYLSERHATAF
Chain of E3 ubiquitin-protein ligase Mdm2 (Q00987 whole entry): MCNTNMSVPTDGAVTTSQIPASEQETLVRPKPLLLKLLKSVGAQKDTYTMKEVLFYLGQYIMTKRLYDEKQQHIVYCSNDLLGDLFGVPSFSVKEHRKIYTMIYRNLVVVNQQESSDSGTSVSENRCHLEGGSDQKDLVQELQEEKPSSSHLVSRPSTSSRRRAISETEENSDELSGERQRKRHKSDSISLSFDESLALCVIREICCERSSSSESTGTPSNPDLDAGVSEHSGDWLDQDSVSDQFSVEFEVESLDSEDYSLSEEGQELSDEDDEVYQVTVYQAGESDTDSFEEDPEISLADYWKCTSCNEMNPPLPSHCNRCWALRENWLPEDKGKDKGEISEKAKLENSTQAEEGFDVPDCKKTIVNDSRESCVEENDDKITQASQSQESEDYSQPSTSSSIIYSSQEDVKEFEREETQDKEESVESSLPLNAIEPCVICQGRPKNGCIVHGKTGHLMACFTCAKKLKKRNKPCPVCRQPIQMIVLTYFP
Chain of Tyrosine-protein phosphatase non-receptor type 11 (Q06124 whole entry): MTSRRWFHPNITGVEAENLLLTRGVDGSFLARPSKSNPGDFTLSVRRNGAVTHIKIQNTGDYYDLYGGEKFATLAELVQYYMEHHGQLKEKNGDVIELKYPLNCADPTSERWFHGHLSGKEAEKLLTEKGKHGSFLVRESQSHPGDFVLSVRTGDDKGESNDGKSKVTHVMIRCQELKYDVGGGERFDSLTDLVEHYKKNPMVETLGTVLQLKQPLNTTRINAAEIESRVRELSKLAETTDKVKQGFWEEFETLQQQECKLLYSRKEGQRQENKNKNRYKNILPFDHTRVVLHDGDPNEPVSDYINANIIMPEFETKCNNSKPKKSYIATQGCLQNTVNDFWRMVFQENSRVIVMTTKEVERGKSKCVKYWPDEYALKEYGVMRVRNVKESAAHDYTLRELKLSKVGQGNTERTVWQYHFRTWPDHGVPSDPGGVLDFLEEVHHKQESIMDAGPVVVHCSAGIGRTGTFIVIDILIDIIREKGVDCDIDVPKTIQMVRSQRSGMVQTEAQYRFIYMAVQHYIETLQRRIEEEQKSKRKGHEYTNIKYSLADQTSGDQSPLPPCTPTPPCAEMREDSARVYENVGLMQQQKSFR
Chain of C-C chemokine receptor type 6 (P51684 whole entry): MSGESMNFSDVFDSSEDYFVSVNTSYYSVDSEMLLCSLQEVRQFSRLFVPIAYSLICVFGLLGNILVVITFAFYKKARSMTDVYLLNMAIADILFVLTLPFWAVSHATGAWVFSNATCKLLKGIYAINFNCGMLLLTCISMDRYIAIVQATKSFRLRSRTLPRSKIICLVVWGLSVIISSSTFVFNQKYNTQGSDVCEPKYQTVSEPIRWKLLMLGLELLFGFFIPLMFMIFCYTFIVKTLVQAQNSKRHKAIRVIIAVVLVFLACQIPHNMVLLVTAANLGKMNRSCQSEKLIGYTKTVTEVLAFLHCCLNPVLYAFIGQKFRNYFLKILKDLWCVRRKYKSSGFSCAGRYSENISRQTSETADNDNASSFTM
Chain of Protein Tat (P04608 whole entry): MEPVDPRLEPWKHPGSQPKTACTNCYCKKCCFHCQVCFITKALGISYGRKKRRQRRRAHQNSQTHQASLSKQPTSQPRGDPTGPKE

COc1cccc(C2=NOC(C(=O)Nc3cc(OC)c(OC)c(OC)c3)C2)c1 (centres undefined)
active: IC50 [1] 2.02 µM

O=C(c1ccccc1F)N1CC(=O)N2[C@H](C1)[C@H](c1ccc(-c3cccnc3)cc1)[C@@H]2CO
active: AC50 [2] 19.4 µM

O=C(COC(=O)c1ccccc1OC(F)F)Nc1ccc2[nH]c(O)nc2c1
active: CC50 [3] > 40 µM | IC50 [4] > 100 µM

Cc1c(C)n(C(=O)CSc2nc3ccccc3[nH]2)c2ccccc12
active: IC50 [5] 9.91 µM | IC50 [6] 3.37 µM | IC50 [7] 0.603 µM | IC50 [8] 1.81 µM | IC50 [9] > 100 µM | IC50 [10] 8.33 µM | IC50 [11] 38.2 µM

[N-]=[N+]=NCCOCCNC(=O)CCCOc1ccc(C[S+]([O-])c2nnc(-c3ccc(Cl)cc3)o2)nc1 (centres undefined)
active: IC90 [12] 8 µM | IC90 [13] 8 µM

COc1ccc(-c2nsc(SCC(=O)Nc3ccc4c(c3)OCO4)n2)cc1
0.19 µM (not active): EC50 [14]

O=C(OCCO)c1ccccc1O
inactive: IC50 [15] > 20 µM | IC50 [16] > 20 µM | IC50 [17] > 20 µM | IC50 [18] > 20 µM | IC50 [19] > 20 µM | IC50 [20] > 20 µM | IC50 [21] > 20 µM | IC50 [22] > 20 µM

COc1cc(C(=O)NC2CC3CCCC(C2)N3CC(=O)Nc2ccccc2Cl)cc(OC)c1OC (centres undefined)
inactive: IC50 [23] > 79 µM | IC50 [24] > 79 µM and 60.1 µM
